{"source": "patent EP4656186A1", "about": "“NOVEL SOLID DISPERSION AND METHOD FOR PREPARING SAME” (ST Pharm Co., Ltd., priority 2023, dated 2024)", "key": {"[1]": {"assay": "Solubility in fasted state simulated intestinal fluid (FaSSIF)", "assay_type": "physicochemical", "details": "thermodynamic from solid, After 4 hours at room temperature", "excerpt": "Experimental Example 2: Confirmation of Solubility of Examples 1 to 5 in FaSSIF\nThe solubility of the solid dispersions prepared in Examples 1 to 5 in fasted state simulated intestinal fluid (FaSSIF) was confirmed, and the results are shown in Table 1.\nExperimental Example 4: Confirmation of Solubility of Examples 6 to 7 in FaSSIF\nThe solubility of the solid dispersions prepared in Examples 6 to 7 in fasted state simulated intestinal fluid (FaSSIF) was confirmed in the same manner as in Experimental Example 2, and the results are shown in Table 2."}, "[2]": {"assay": "Pharmacokinetic test (in vivo), oral administration, plasma concentration by LC-MS/MS", "design": "species or system rats", "details": "10 mg/kg", "procedure": "Experimental Example 5: Confirmation of Bioavailability of Examples 1 and 6\nSpecifically, the drug was administered orally to rats, and blood was collected from the jugular vein at a predetermined time. The collected blood was centrifuged to separate plasma, pretreated, and then the concentration was analyzed by LC-MS/MS. Non-compartmental pharmacokinetic parameters were calculated using WinNonlin (Phoenix™, version 6.1) from the analyzed blood concentration-time data of the drug, and the results are shown in Table 3."}}, "data": [{"smiles": "COCCOc1cc(F)c(N2CCN(c3nc4c(nnn4C)c(=O)[nH]3)CC2)c(F)c1", "note": "[Compound of Chemical Formula I]", "values": [{"measurement": "solubility at 4 h", "setting": "[1]; Table 1 (Experimental Example 2)", "result": 1.89, "unit": "µg/mL"}, {"measurement": "solubility at 4 h", "setting": "[1]; Table 2 (Experimental Example 4)", "result": 1.66, "unit": "µg/mL"}, {"measurement": "AUClast Fold change", "setting": "[2]; relative to the compound of Chemical Formula I", "result": 1.00}, {"measurement": "AUC(0-t)", "setting": "[2]; rat, plasma", "result": 5460, "unit": "ng·h/mL"}, {"measurement": "Cmax", "setting": "[2]; rat, plasma", "result": 1020, "unit": "ng/mL"}, {"measurement": "Tmax", "setting": "[2]; rat, plasma", "result": 1, "unit": "h"}, {"measurement": "half-life", "setting": "[2]; rat, plasma", "result": 5.39, "unit": "h"}]}]}
